Test results as given in patent publication US11225469B2, “Inhibitors of phosphoglycerate dehydrogenase (PHGDH) and uses thereof” (Whitehead Institute for Biomedical Research, priority 2015, dated 2022).

Key:
GPD1 = GPD1 (Homo sapiens (Human), UniProt P21695); experiment: Counter-screen against GPD1; format: biochemical; conditions: Table E11
Description: (§1) GAPDH substrate buffer contained 210 mM Tris pH 7.4, 2.5 mM NaH2PO4 pH 7.4, 2 mM DL-Glyceraldehyde 3-phosphate, 1.75 mM MgCl2, 0.01 mM NAD+, 0.11 mM resazurin, 0.2 mg/mL BSA, and 0.01% Tween-20. GAPDH enzyme buffer contained 50 mM Tris pH 7.4, 100 mM NaCl, 0.02 mM TCEP, 0.01 mM EDTA, 0.1 mg/mL BSA, 0.42 mg/mL diaphorase, and 2.5 nM GAPDH. The GAPDH, GPD1, and GPD1L assays were run in 384-well plates using the same protocol and readout as the PHGDH assay. […] GPD1 enzyme buffer contained 50 mM Tris pH 7.4, 100 mM NaCl, 0.08 mM TCEP, 0.4 mg/mL BSA, 0.03 μM EDTA, and 0.8 nM GPD1. 70 μL of substrate buffer were mixed with 10 μL enzyme buffer. GPD1L substrate buffer contained 200 mM Tris pH 7.4, 0.05 mM sn-G3-P, 2 mM MgCl2, 0.04 mM NAD+, 0.11 mM resazurin, 0.1 mg/mL BSA, and 0.02% Tween-20. GPD1L enzyme buffer contained 50 mM Tris pH 7.4, 100 mM NaCl, 0.02 mM TCEP, 0.42 mg/mL diaphorase, 0.1 mg/mL BSA, 0.008 μM EDTA, and 16 nM GPD1L. 40 μL of substrate buffer were mixed with 40 μL of enzyme buffer.
(§2) The GAPDH and GPD1L assays were read using the same protocol as the PHGDH assay. The GPD1 assay was read using loss of NADH fluorescence (λex=340 nm and λem=460 nm).

GPD1L = GPD1L (Homo sapiens (Human), UniProt Q8N335); experiment: Counter-screen against GPD1L; format: biochemical; conditions: Table E11
Chain of GPD1L (Q8N335 whole entry): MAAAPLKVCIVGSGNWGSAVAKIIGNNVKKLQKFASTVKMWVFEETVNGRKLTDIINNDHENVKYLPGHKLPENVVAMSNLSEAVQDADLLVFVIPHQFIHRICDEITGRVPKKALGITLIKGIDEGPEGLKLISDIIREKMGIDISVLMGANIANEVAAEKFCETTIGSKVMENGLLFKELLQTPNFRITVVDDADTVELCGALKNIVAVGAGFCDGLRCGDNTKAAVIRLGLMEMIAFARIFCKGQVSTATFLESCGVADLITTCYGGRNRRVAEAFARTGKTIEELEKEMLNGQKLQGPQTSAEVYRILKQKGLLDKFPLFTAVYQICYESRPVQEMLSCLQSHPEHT
Description: as §1, §2

[1] = tested on: panel of other dehydrogenases; experiment: Panel of other dehydrogenases; format: biochemical
panel of 168 GPCRs = experiment: Cross-reactivity in a panel of 168 GPCRs
[2] = tested on: PHGDH-independent cell lines (ZR-75-1, SK-MEL-2); experiment: Cytotoxicity (Cell Titer-Glo), other PHGDH-independent cell lines; format: cell-based, human
Description: Knockdown of PHGDH is selectively toxic towards PHGDH-dependent cell lines, and minimally toxic towards PHGDH-independent cell lines. […] Cell count was determined by quantitating the amount of ATP present with CellTitreGlo® measurements 96 hours after dosage.
Cells were seeded in white 96-well plates (Greiner) at a density of 2000 cells/well (MDA-MB-468, BT-20, MT-3) or 1000 cells/well (all other cell lines) and allowed to attach for 24 hours. Compounds were prepared in DMSO and dispensed using an HP D300 compound dispenser. Cell viability was assessed with Cell Titer-Glo (Promega) at four days following treatment and luminescence measured with a SpectraMax M5 Plate Reader (Molecular Devices). Luminescence was normalized to an untreated control in identical medium. For rescue experiments, RPMI was supplemented with 40 μM adenosine, uridine, guanosine, cytidine, deoxyadenosine, thymidine, deoxyguanosine, and deoxycytidine and the medium was replaced daily.

MDA-MB-468 cells = experiment: Metabolite profiling and 13C labeling in MDA-MB-468 cells (LC-MS); format: cell-based, human
Description: To track the effects of PHGDH inhibition on glycolysis and serine biosynthesis, MDA-MB-231 and MDA-MB-468 cells were fed universally labeled carbon-13 glucose and the intracellular ratio of labeled to unlabeled glucose was measured at the times indicated in FIG. 3E.
Cells were evenly seeded at 400,000 cells per well of a 6-well plate and allowed to attach for 24 hours. Prior to all labeling experiments, cells were pretreated with 10 μM compound or an equivalent volume of DMSO in RPMI for 1 hour. For steady-state metabolite concentrations, cells were washed with PBS prior to pretreatment and treatment in RPMI lacking serine and glycine. For labeling experiments, U-^13C-glucose, U-^13C-serine, or U-^13C-glycine replaced the corresponding unlabeled RPMI component. Cells were washed in 4° C. 0.9% (w/v) NaCl in LCMS-grade water and extracted in 1 mL/well of 80:20 (v/v) methanol:water with 0.01 ng/mL Val-d8 and Phe-d8 as internal extraction standards. The extraction solvent was dried under nitrogen gas and metabolite samples were stored at −80° C. until analysis. Triplicate identically seeded wells were trypsinzed and analyzed with a Multisizer Coulter Counter (Beckman Coulter) to obtain cell counts and total cell volumes for normalization.
Dried metabolites were resuspended in 100 μL water, centrifuged at 13,000×g at 4° C. for 10 minutes, and the supernatant recovered for analysis. Chromatographic separation was achieved by injecting 1 pi of sample on a SeQuant ZIC-pHILIC Polymeric column (2.1 3 150 mm […], EMD Millipore). Flow rate was set to 0.1 ml per minute, column compartment was set to 25° C., and autosampler sample tray was set to 4° C. Mobile Phase A consisted of 20 mM ammonium carbonate, 0.1% ammonium hydroxide. Mobile Phase B was 100% acetonitrile. The mobile phase gradient (% B) was as follows: 0 min 80%, 30 min 20%, 31 min 80%, 42 min 80%. All mobile phase was introduced into the ionization source set with the following parameters: sheath gas=40, auxiliary gas=15, sweep gas=5, spray voltage=−3.1 kV or +3.0 kV, capillary temperature=275° C., S-lens RF level=40, probe temperature=350° C. Metabolites were monitored using a polarity-switching full-scan method and identified by accurate mass (±20 ppm) and retention time within 15 seconds of a previously run pure standard. Metabolite peaks were identified and integrated with Xcalibur v.2.2 software (Thermo Fisher Scientific) and normalized to internal standard and to total cell volume, m/z ratios for stable isotopically labeled metabolites were obtained from IsoMETLIN (See, e.g., Cho, K. et al. “isoMETLIN: a database for isotope-based metabolomics.” Anal Chem 86, 9358-9361 (2014)) and corrected for natural abundance.

[3] = tested on: MDA-MB-231 orthotopic xenografts; experiment: MDA-MB-231 orthotopic xenografts; format: in vivo, mouse; conditions: 40 mg/kg daily, IP
Description: Female NOD.CB17-Prkdc^scid/J mice, 6-8 weeks old, were obtained from Jackson Laboratories. All animals were provided with food ad libitum for the duration for the duration of the experiment. The animals were allocated randomly for induction with MDA-MB-231 or MDA-MB-468 tumors and tumor group was assigned blindly. 500,000 MDA-MB-231 or MDA-MB-468 cells were injected into the 4th mammary fat pad of each mouse. After 30 days, the tumors were palpable, and the mice were pooled by tumor type and divided randomly to two groups, which were assigned blindly to vehicle or NCT-503 treatment. […] Caliper measurements were obtained twice weekly and tumor volumes were calculated with the modified ellipsoid formula: volume=0.5×width^2×length.
For quantitation of necrotic regions, fixed tumors were embedded and sections stained with hematoxylin and eosin. Slides were scanned with a Leica Aperio AT2 brightfield scanner. Tumor and necrotic cross-sectional regions were manually delineated and measured using Leica ImageScope software to calculate the percentage of necrosis.

Chain of GPD1 (P21695 whole entry): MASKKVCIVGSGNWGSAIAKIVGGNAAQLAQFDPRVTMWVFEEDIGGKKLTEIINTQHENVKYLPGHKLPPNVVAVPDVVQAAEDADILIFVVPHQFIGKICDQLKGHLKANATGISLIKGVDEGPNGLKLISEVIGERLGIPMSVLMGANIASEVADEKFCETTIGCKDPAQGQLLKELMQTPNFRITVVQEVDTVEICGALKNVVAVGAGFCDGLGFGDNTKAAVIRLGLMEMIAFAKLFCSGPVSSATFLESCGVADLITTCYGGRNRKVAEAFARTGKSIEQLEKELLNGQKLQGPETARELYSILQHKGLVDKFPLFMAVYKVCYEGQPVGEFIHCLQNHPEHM

Cc1cc(C)nc(NC(=S)N2CCN(Cc3ccc(C(F)(F)F)cc3)CC2)c1 [Compound 267, N-(4,6-dimethylpyridin-2-yl)-4-(4-(trifluoromethyl)benzyl)piperazine-1-carbothioamide]
IC50 (GPD1): ≥ 100 µM
IC50 (GPD1L): ≥ 100 µM
activity against a panel of other dehydrogenases [1]: inactive
cross-reactivity, modulation of activity (panel of 168 GPCRs): < 30%
toxicity [2]: no toxicity
intracellular glucose concentration (MDA-MB-468 cells): did not change
incorporation of 13C from exogenous U-13C-serine into AMP and dTMP (MDA-MB-468 cells; treatment for 4 hours): decreased
reduction of labeled (glucose-derived) intracellular serine (MDA-MB-468 cells; universally labeled carbon-13 glucose): > 75%
reversibility of inhibition of serine synthesis in cells (MDA-MB-468 cells; washout): reversible
growth or weight of xenografts [3]: did not affect the growth or weight
